Assay results published in article PMC9199881 (Clinical and Translational Science, 2022).

Columns and labels:
[1] = test system: rat antibody-mediated Arthus model; conditions: cited from earlier work
healthy subjects [2] = test: Safety assessment; assay type: in vivo, human
[3] = test system: human ether-a-go-go-related gene (hERG) current; conditions: 10 μM; hERG-transfected HEK293 cells; ref unpublished preclinical safety studies; cited from earlier work
patients with PV and ITP = conditions: rilzabrutinib 400 mg b.i.d.; cited from earlier work
[4] = test system: cytochrome P450 3A4 (CYP3A4); conditions: enzymatic studies; cited from earlier work
healthy subjects [5] = test: ECG by timepoint analysis and categorical outliers, Part B; assay type: in vivo, human
[6] = Plasma pharmacokinetics, Part A; assay type: in vivo, human; conditions: human, plasma, oral; for AUC(0-t): AUC0–last; for AUC(0-inf): AUC0–∞
[7] = Part B, 400 mg rilzabrutinib plus ritonavir
[8] = Part B, rilzabrutinib 400 mg + ritonavir 100 mg, first column of the group
[9] = Part B, rilzabrutinib 400 mg + ritonavir 100 mg, second column of the group
[10] = 1200 mg, Mean (SD), rilzabrutinib 1200 mg single dose
[11] = 1200 mg, Median (range), rilzabrutinib 1200 mg single dose
[12] = Mean (SD), rilzabrutinib 100 mg + ritonavir 100 mg b.i.d., rilzabrutinib in plasma
[13] = Median (range), rilzabrutinib 100 mg + ritonavir 100 mg b.i.d., rilzabrutinib in plasma

CC(C)(/C=C(\C#N)C(=O)N1CCC[C@@H](n2nc(-c3ccc(Oc4ccccc4)cc3F)c3c(N)ncnc32)C1)N1CCN(C2COC2)CC1 [Rilzabrutinib, rilzabrutinib]
anti-inflammatory effects [1]: rapid and significant anti‐inflammatory effects
serious TEAEs or deaths (healthy subjects [2]; Part B): no serious TEAEs or deaths
Treatment-related TEAE: Abdominal pain, n (%) (healthy subjects [2]; Part B, 400 mg alone): 3 (9.4) n (%)
Treatment-related TEAE: Diarrhea, n (%) (healthy subjects [2]; Part B, 400 mg alone): 9 (28.1) n (%)
Treatment-related TEAE: Dizziness, n (%) (healthy subjects [2]; Part B, 400 mg alone): 0 n (%)
Treatment-related TEAE: Dysgeusia, n (%) (healthy subjects [2]; Part B, 400 mg alone): 1 (3.1) n (%)
Treatment-related TEAE: Frequent bowel movements, n (%) (healthy subjects [2]; Part B, 400 mg alone): 0 n (%)
Treatment-related TEAE: Gastrointestinal disorders, n (%) (healthy subjects [2]; Part B, 400 mg alone): 13 (40.6) n (%)
Treatment-related TEAE: Headache, n (%) (healthy subjects [2]; Part B, 400 mg alone): 1 (3.1) n (%)
Treatment-related TEAE: Herpex simplex, n (%) (healthy subjects [2]; Part B, 400 mg alone): 0 n (%)
Treatment-related TEAE: Infections and infestations, n (%) (healthy subjects [2]; Part B, 400 mg alone): 0 n (%)
Treatment-related TEAE: Lethargy, n (%) (healthy subjects [2]; Part B, 400 mg alone): 0 n (%)
Treatment-related TEAE: Nervous system disorders, n (%) (healthy subjects [2]; Part B, 400 mg alone): 2 (6.3) n (%)
Treatment-related TEAE: Somnolence, n (%) (healthy subjects [2]; Part B, 400 mg alone): 0 n (%)
Treatment-related TEAE: Subjects with ≥1 TEAE, n (%) (healthy subjects [2]; Part B, 400 mg alone): 14 (43.8) n (%)
Treatment-related TEAE: Vomiting, n (%) (healthy subjects [2]; Part B, 400 mg alone): 0 n (%)
incidence of treatment-related TEAEs (healthy subjects [2]; Part B, 400 mg alone): 43.8%
participants with diarrhea (healthy subjects [2]; Part B, 400 mg alone): 28.1%
incidence of treatment-related TEAEs (healthy subjects [2]; [7]): 44.1%
participants with diarrhea (healthy subjects [2]; [7]): 35.3%
moderate (grade 2) rilzabrutinib related TEAEs (healthy subjects [2]; Part B, nausea with 400 mg and diarrhea with 400 mg plus 100 mg ritonavir, in two participants): two moderate (grade 2) rilzabrutinib related TEAEs
Treatment-related TEAE: Abdominal pain, n (%) (healthy subjects [2]; [8]): 0 n (%)
Treatment-related TEAE: Diarrhea, n (%) (healthy subjects [2]; [8]): 12 (35.3) n (%)
Treatment-related TEAE: Dizziness, n (%) (healthy subjects [2]; [8]): 0 n (%)
Treatment-related TEAE: Dysgeusia, n (%) (healthy subjects [2]; [8]): 2 (5.9) n (%)
Treatment-related TEAE: Frequent bowel movements, n (%) (healthy subjects [2]; [8]): 1 (2.9) n (%)
Treatment-related TEAE: Gastrointestinal disorders, n (%) (healthy subjects [2]; [8]): 14 (41.2) n (%)
Treatment-related TEAE: Headache, n (%) (healthy subjects [2]; [8]): 0 n (%)
Treatment-related TEAE: Herpex simplex, n (%) (healthy subjects [2]; [8]): 1 (2.9) n (%)
Treatment-related TEAE: Infections and infestations, n (%) (healthy subjects [2]; [8]): 1 (2.9) n (%)
Treatment-related TEAE: Lethargy, n (%) (healthy subjects [2]; [8]): 0 n (%)
Treatment-related TEAE: Nervous system disorders, n (%) (healthy subjects [2]; [8]): 3 (8.8) n (%)
Treatment-related TEAE: Somnolence, n (%) (healthy subjects [2]; [8]): 2 (5.9) n (%)
Treatment-related TEAE: Vomiting, n (%) (healthy subjects [2]; [8]): 0 n (%)
Treatment-related TEAE: Abdominal pain, n (%) [second column of the group] (healthy subjects [2]; [9]): 0 n (%)
Treatment-related TEAE: Diarrhea, n (%) [second column of the group] (healthy subjects [2]; [9]): 12 n (%)
Treatment-related TEAE: Dizziness, n (%) [second column of the group] (healthy subjects [2]; [9]): 0 n (%)
Treatment-related TEAE: Dysgeusia, n (%) [second column of the group] (healthy subjects [2]; [9]): 2 n (%)
Treatment-related TEAE: Headache, n (%) [second column of the group] (healthy subjects [2]; [9]): 0 n (%)
Treatment-related TEAE: Herpex simplex, n (%) [second column of the group] (healthy subjects [2]; [9]): 1 n (%)
Treatment-related TEAE: Lethargy, n (%) [second column of the group] (healthy subjects [2]; [9]): 0 n (%)
Treatment-related TEAE: Nausea, n (%) [second column of the group] (healthy subjects [2]; [9]): 4 n (%)
Treatment-related TEAE: Somnolence, n (%) [second column of the group] (healthy subjects [2]; [9]): 2 n (%)
Treatment-related TEAE: Vomiting, n (%) [second column of the group] (healthy subjects [2]; [9]): 0 n (%)
changes in clinical chemistry (healthy subjects [2]; at the studied doses): No clinically meaningful changes
safety profile (healthy subjects [2]; at the studied doses): acceptable safety profile
signal on hERG current [3]: no signal
prolonged QTcF interval among safety concerns (patients with PV and ITP): did not report prolonged QTcF interval
interaction with CYP3A4 [4]: substrate for and weak inhibitor
effect on HR (healthy subjects [5]; Part B): no effect on HR
effect on cardiac conduction (PR and QRS intervals) (healthy subjects [5]; Part B, at the studied doses): no clinically relevant effect
treatment-emergent T-wave or U-wave morphology changes (healthy subjects [5]; Part B, following 400 mg rilzabrutinib): one subject with a flat T wave at two timepoints
effects on ECG parameters, including the QTc interval (healthy subjects [5]; therapeutic and supratherapeutic (with ritonavir) exposures): no clinically relevant effects
AUC(0-t) [6, 10]: 2470 ng·h/mL
AUC(0-t) [6, 11]: 551 ng·h/mL
AUC(0-inf) [6, 10]: 2470 ng·h/mL
AUC(0-inf) [6, 11]: 553 ng·h/mL
Cmax [6, 10]: 569 ng/mL
Cmax [6, 11]: 136 ng/mL
Tmax [6, 10]: 2.9 h
Tmax [6, 11]: ~3 h
half-life ([6]; 1200 mg, t 1/2, Mean (SD), rilzabrutinib 1200 mg single dose): 3.1 h
half-life ([6]; 1200 mg, t 1/2, Median (range), rilzabrutinib 1200 mg single dose): 3.2 h
AUC(0-t) [6, 12]: 1080 ng·h/mL
AUC(0-t) [6, 13]: 771 ng·h/mL
AUC(0-inf) [6, 12]: 1100 ng·h/mL
AUC(0-inf) [6, 13]: 778 ng·h/mL
